SMILES strings stand for the structures. Read-outs that look alike come from different tables or passages of the source.

The target of one assay is T1, hSARM1 (Homo sapiens, UniProt Q6SZW1).
T1 sequence (Q6SZW1 28-724): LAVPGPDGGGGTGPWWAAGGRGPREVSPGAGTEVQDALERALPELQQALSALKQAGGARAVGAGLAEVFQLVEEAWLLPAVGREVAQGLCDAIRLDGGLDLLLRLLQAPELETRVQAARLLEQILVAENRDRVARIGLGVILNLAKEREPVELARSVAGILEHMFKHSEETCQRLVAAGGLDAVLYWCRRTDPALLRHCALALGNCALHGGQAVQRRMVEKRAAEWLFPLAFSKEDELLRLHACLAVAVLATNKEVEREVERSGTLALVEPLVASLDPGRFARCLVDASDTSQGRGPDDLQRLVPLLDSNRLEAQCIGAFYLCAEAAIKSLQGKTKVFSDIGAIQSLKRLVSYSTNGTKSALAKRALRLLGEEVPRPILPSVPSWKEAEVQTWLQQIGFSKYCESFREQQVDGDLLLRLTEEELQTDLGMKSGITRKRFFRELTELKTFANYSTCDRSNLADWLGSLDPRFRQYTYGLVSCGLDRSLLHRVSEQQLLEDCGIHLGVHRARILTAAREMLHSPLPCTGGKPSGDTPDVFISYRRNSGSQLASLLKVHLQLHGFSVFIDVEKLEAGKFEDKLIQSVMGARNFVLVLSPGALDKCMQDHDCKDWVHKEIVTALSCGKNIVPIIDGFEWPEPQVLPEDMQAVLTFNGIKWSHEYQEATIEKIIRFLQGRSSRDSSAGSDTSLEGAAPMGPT
Nature of the assay: Human SARM1 activity measurement in HEK293 cells transiently transfected with ΔN-hSARM1 (PC6 fluorescent probe). On the set-up: expressed in transfected cells; host or cells: HEK293, pcDNA3 expression vector. Type of assay: cell-based. In a few lines:
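HEK293 cells in nicotinamide-free DMEM with 5 μM nicotinamide, transiently transfected with mitochondrial-targeting-deleted ΔN-hSARM1; PC6 base-exchange fluorescent probe (50 μM) plus compound (30 μM) added ~8 h post-transfection. Fluorescence (ex 405/em 525 nm) read ~48 h from transfection; inhibition % versus transfected DMSO control, untransfected background subtracted.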

For assay [1], the system named is primary cultured cells of mouse fetus-derived dorsal root ganglia (DRGs). Put plainly: Suppression of axonal degeneration after axotomy in DRG explant culture. It is filed as cell-based. Particulars: minimum concentration at which axonal degeneration was suppressed (DI 0.3 or less), 24 hours after axotomy; for minimal effective concentration: Mus musculus, read-out: Evaluation on protection against degeneration. The essentials: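 Embryonic ICR mouse DRG explants were cultured 7–8 days in nicotinamide-free neuronal medium with NGF, then axotomized by removing the cell bodies. Compound (100 pM–10 µM final, 0.1% DMSO) was added within 30 min, and neurites were imaged 24 h later. The result is the lowest concentration giving degeneration index ≤0.3.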

The target of assay [2] is T2, nicotinamide phosphoribosyl transferase (NAMPT) (Homo sapiens, UniProt P43490).
T2 construct: purchased Medical & Biological Laboratories Co., Ltd. (MBL)
Put plainly: NAMPT activity measurement (NMN fluorescence detection). Particulars: NAMPT recombinant protein, 10 µM Nam; for IC50: read-out: Evaluation on NAMPT inhibitory. It is filed as biochemical. The essentials:
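Recombinant NAMPT reacted with 10 µM Nam, 0.5 µM PRPP, 2 µM ATP in Tris pH 7.4 buffer with MgCl2, DTT, BSA; product NMN quantified by fluorescence (ex 421/em 480 nm) after derivatization with 2-acetylbenzofuran. Compounds at 3 nM–10 µM; control-normalized signal used for IC50.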

Setting [3] is: inhibition rate, compound 30 µM, PC6 50 µM, HEK293 cells expressing ΔN-hSARM1, approximately 48 hours from transfection, read-out: Evaluation on hSARM1 inhibitory.

T2 sequence (P43490 whole entry, species assumed): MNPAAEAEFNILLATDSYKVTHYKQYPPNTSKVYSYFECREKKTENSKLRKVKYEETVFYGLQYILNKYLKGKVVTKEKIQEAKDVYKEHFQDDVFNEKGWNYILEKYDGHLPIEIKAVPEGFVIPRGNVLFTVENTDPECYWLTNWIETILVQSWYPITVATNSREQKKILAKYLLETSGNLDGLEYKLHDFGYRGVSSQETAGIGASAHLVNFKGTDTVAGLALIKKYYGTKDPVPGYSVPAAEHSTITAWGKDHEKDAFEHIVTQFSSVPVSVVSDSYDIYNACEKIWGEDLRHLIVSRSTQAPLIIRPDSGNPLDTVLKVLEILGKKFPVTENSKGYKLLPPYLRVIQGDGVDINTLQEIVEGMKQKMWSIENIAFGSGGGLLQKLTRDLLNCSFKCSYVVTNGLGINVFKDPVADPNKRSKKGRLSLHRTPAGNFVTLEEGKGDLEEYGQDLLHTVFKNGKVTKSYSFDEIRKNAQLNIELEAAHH

Regarding `O=C(/C=C/c1ccc(C(F)(F)F)cc1)Nc1ccc(CNC(=O)c2cccnc2)cn1` [Compound 167], the inhibition at 30 µM on hSARM1 (setting [3]) was greater than 75%. Also, in assay [1], the minimal effective concentration is no more than 0.01 µM. In addition, in assay [2], the “Evaluation on NAMPT inhibitory” value is listed as “○”.
For `CCC(C)(C)C(=O)Nc1ccc(CNC(=O)c2cccnc2)cn1` [compound 88], in that order: greater than 50%, 0.01 to 0.1 µM and “○”.
As to `O=C(NCc1ccc(NC(=O)c2ccccc2)c(F)c1)c1cccnc1` [compound 110], the inhibition at 30 µM on hSARM1 (HEK293, read-out: Evaluation on hSARM1 inhibitory) is greater than 25%. Besides, the “Evaluation on protection against degeneration” value (from here on “Evaluation on protection”) in assay [1] is “A (A ≤ 0.01 µM)”. For the same molecule, the “Evaluation on NAMPT inhibitory” value in assay [2] was “○”.
As for `O=C(NCCCNS(=O)(=O)c1ccccc1[N+](=O)[O-])c1cccnc1` [compound 63], the inhibition at 30 µM on hSARM1 (setting [3]) is greater than 10%. In addition, the minimal effective concentration in assay [1] was in the range of 0.1 to 1 µM. Also, the “Evaluation on NAMPT inhibitory” value in assay [2] is listed as “○”.
As to `COc1cccc(OCCCNC(=O)/C=C/c2cccnc2)c1` [compound 18], on hSARM1 (setting [3]), the inhibition at 30 µM was greater than 75%. In addition, the minimal effective concentration in assay [1] was no more than 0.01 µM. Also, the IC50 in assay [2] is no less than 0.1 µM.
Regarding `COC(=O)c1ccc(OCCOCCNC(=O)c2cccnc2)cc1` [compound 32], the inhibition at 30 µM on hSARM1 (setting [3]) was greater than 50%. Besides, the minimal effective concentration in assay [1] is no more than 0.01 µM. Moreover, the “Evaluation on NAMPT inhibitory” value in assay [2] was “○”.
On to `COc1ccc(/C=C/C(=O)Nc2ccc(CNC(=O)c3cccnc3)cn2)cc1` [Compound 180], for which the inhibition at 30 µM on hSARM1 (setting [3]) was greater than 75%. Also, the minimal effective concentration in assay [1] is no more than 0.01 µM. In addition, the IC50 in assay [2] is no less than 0.1 µM.
Turning to `CCc1ccc(C(=O)Nc2ccc(CNC(=O)c3cccnc3)cn2)cc1` [Compound 131], the inhibition at 30 µM at hSARM1 (setting [3]) is greater than 75%. In addition, the minimal effective concentration in assay [1] was no more than 0.01 µM. Also, in assay [2], the “Evaluation on NAMPT inhibitory” value is “○”.
`O=C(NCc1ccc(NC(=O)c2ccc(C(F)(F)F)cc2)nc1)c1cccnc1` [compound 83]: the inhibition at 30 µM at hSARM1 (setting [3]) was greater than 50%. In assay [1], the minimal effective concentration is no more than 0.01 µM. For the same molecule, the “Evaluation on NAMPT inhibitory” value in assay [2] is listed as “○”.
The matching figures for `Cc1ccc(/C=C/C(=O)Nc2ccc(CNC(=O)c3cccnc3)cn2)cc1` [Compound 179]: greater than 75%, no more than 0.01 µM and “○”.
Consider `O=C(CCc1ccc(C(F)(F)F)cc1)Nc1ccc(CNC(=O)c2cccnc2)cn1` [Compound 169], for which the inhibition at 30 µM at hSARM1 (setting [3]) was greater than 75%. In addition, in assay [1], the minimal effective concentration was no more than 0.01 µM. Also, in assay [2], the “Evaluation on NAMPT inhibitory” value is reported as “○”.
With `O=C(NCc1cccc(CNC(=O)c2cccnc2)n1)c1cccnc1` [Compound 150], the inhibition at 30 µM on hSARM1 (setting [3]) was greater than 25%. Further, in assay [1], the minimal effective concentration lay within 0.1 to 1 µM. The “Evaluation on NAMPT inhibitory” value in assay [2] was “○”.
For `O=C(NCc1ccc(NC(=O)c2ccccc2F)nc1)c1cccnc1` [Compound 133], in that order: greater than 75%, no more than 0.01 µM and “○”.
As for `CC(C)C(=O)Nc1ccc(CNC(=O)c2cccnc2)cn1` [compound 72], the inhibition at 30 µM on hSARM1 (setting [3]) was greater than 50%. In addition, the minimal effective concentration in assay [1] lay within 0.01 to 0.1 µM. The “Evaluation on NAMPT inhibitory” value in assay [2] is listed as “○”.
The matching figures for `O=C(NCCCOCCOCCCNC(=O)c1ccc2ncccc2c1)c1cccnc1` [Compound 188]: greater than 25%, no more than 0.01 µM and “○”.
Regarding `O=C(NCCCOc1ccc(CNC(=O)c2ccccc2)cc1)c1cccnc1` [compound 15], on hSARM1 (setting [3]), the inhibition at 30 µM was greater than 75%. Besides, the minimal effective concentration in assay [1] was no more than 0.01 µM. In addition, the IC50 in assay [2] is no less than 0.1 µM.
As for `CC(C)CC(=O)Nc1ccc(CNC(=O)c2cccnc2)cn1` [Compound 162], the inhibition at 30 µM on hSARM1 (setting [3]) is greater than 25%. Also, in assay [1], the minimal effective concentration is no more than 0.01 µM. In assay [2], the “Evaluation on NAMPT inhibitory” value is given as “○”.
In the case of `O=C(/C=C/c1cccnc1)Nc1cccc(NC(=O)/C=C/c2cccnc2)n1` [compound 59], the inhibition at 30 µM on hSARM1 (setting [3]) is greater than 25%. For the same molecule, the “Evaluation on protection” value in assay [1] is “A (A ≤ 0.01 µM)”. Moreover, in assay [2], the “Evaluation on NAMPT inhibitory” value is listed as “○”.
Turning to `N#Cc1ccc(CC(=O)Nc2ccc(CNC(=O)c3cccnc3)cn2)cc1` [Compound 154], the inhibition at 30 µM on hSARM1 (setting [3]) is greater than 75%. In addition, in assay [1], the minimal effective concentration is no more than 0.01 µM. Further, the IC50 in assay [2] was no less than 0.1 µM.
`O=C(NCc1ccc(NC(=O)c2ccccn2)nc1)c1cccnc1` [Compound 125]: the inhibition at 30 µM on hSARM1 (setting [3]) was greater than 75%. In addition, the minimal effective concentration in assay [1] was no more than 0.01 µM. The IC50 in assay [2] is no less than 0.1 µM.
With `O=C(/C=C/c1cccnc1)NCCCNC(=O)/C=C/c1cccnc1` [compound 39], at hSARM1 (setting [3]), the inhibition at 30 µM is greater than 75%. Further, the minimal effective concentration in assay [1] is no more than 0.01 µM. In addition, in assay [2], the “Evaluation on NAMPT inhibitory” value is “○”.
In the case of `CC(C)(C)OC(=O)NCCCOCCOCCCNC(=O)c1cccnc1` [compound 70], the inhibition at 30 µM at hSARM1 (setting [3]) is greater than 50%. Further, the minimal effective concentration in assay [1] was no more than 0.01 µM. For the same molecule, in assay [2], the “Evaluation on NAMPT inhibitory” value is “○”.
The matching figures for `CCCCC(=O)N(C(=O)CCCC)c1ccc(CNC(=O)c2cccnc2)cn1` [Compound 171]: greater than 50%, no more than 0.01 µM and “○”.
Turning to `O=C(NCCCCCCCCOCCOCCOCCO)c1cccnc1` [compound 8], the inhibition at 30 µM at hSARM1 (setting [3]) was greater than 50%. Further, in assay [1], the minimal effective concentration was no more than 0.01 µM. Moreover, the IC50 in assay [2] was no less than 0.1 µM.
As for `COCOc1cccc(OCCCNC(=O)c2cccnc2)c1` [compound 25], the inhibition at 30 µM on hSARM1 (setting [3]) was greater than 75%. Further, the “Evaluation on protection” value in assay [1] is “B (0.01 µM < B ≤ 0.1 µM)”. Besides, the “Evaluation on NAMPT inhibitory” value in assay [2] is recorded as “○”.
Consider `O=C(NCc1ccc(NC(=O)C2CCCCC2)nc1)c1cccnc1` [Compound 113], for which the inhibition at 30 µM at hSARM1 (setting [3]) is greater than 75%. In addition, the minimal effective concentration in assay [1] is no more than 0.01 µM. Further, the “Evaluation on NAMPT inhibitory” value in assay [2] is given as “○”.
For `O=C(COc1ccc(C(F)(F)F)cc1)Nc1ccc(CNC(=O)c2cccnc2)cn1` [Compound 176], the inhibition at 30 µM on hSARM1 (setting [3]) is greater than 75%. Also, the minimal effective concentration in assay [1] was in the range of 0.01 to 0.1 µM. In addition, in assay [2], the IC50 is no less than 0.1 µM.
The matching figures for `CC(C)(C)CC(=O)Nc1ccc(CNC(=O)c2cccnc2)cn1` [Compound 182]: greater than 75%, no more than 0.01 µM and no less than 0.1 µM.
Regarding `O=C(C#Cc1ccccc1)Nc1ccc(CNC(=O)c2cccnc2)cn1` [Compound 184], on hSARM1 (setting [3]), the inhibition at 30 µM is greater than 50%. Also, the minimal effective concentration in assay [1] was 0.01 to 0.1 µM. Also, in assay [2], the “Evaluation on NAMPT inhibitory” value is “○”.
Take `O=C(NCCOCCOc1ccc(CNC(=O)c2ccccc2)cc1)c1cccnc1` [compound 13]: the inhibition at 30 µM at hSARM1 (setting [3]) was greater than 75%. Further, the minimal effective concentration in assay [1] is 0.01 to 0.1 µM. Also, in assay [2], the “Evaluation on NAMPT inhibitory” value was “○”.
Regarding `CC#CC(=O)Nc1ccc(CNC(=O)c2cccnc2)cn1` [Compound 183], the inhibition at 30 µM on hSARM1 (setting [3]) was greater than 50%. Besides, the minimal effective concentration in assay [1] is 0.01 to 0.1 µM. In assay [2], the IC50 is no less than 0.1 µM.
Turning to `O=C(NCCOCCOCCNC(=O)c1cccnc1)c1cccnc1` [compound 34], the inhibition at 30 µM at hSARM1 (setting [3]) is greater than 75%. Further, in assay [1], the minimal effective concentration is no more than 0.01 µM. For the same molecule, the “Evaluation on NAMPT inhibitory” value in assay [2] is on record as “○”.
Turning to `Cc1ccc(CC(=O)Nc2ccc(CNC(=O)c3cccnc3)cn2)cc1` [Compound 143], the inhibition at 30 µM at hSARM1 (setting [3]) is greater than 75%. Besides, in assay [1], the minimal effective concentration was no more than 0.01 µM. Further, the IC50 in assay [2] was no less than 0.1 µM.
As to `CC(C)(C)OC(=O)NCCOCCOCCNC(=O)c1cccnc1` [compound 71], the inhibition at 30 µM on hSARM1 (setting [3]) was greater than 50%. Also, the “Evaluation on protection” value in assay [1] is “A (A ≤ 0.01 µM)”. In addition, the “Evaluation on NAMPT inhibitory” value in assay [2] was “○”.

The values above are taken from EP4793271A1, “NEUROPROTECTIVE AGENT” (National Center of Neurology and Psychiatry, priority 2023, dated 2025).
